From patent US5663175A, “Prodrugs of herpes TK inhibitors” (Merck & Co. Inc., priority 1994, dated 1997)

Target: herpes thymidine kinase (Human herpesvirus 1, UniProt P0DTH5)
Assay: Assay for inhibition of herpes thymidine kinase
Format: biochemical
Method: The assay mixture contains in a final volume of 110 microliters the following: 50 mM Tris-HCl, pH 7.5; 5 mM MgCl2; 5 mM ATP; 2 mM dithiothreitol (DTT); 2.5 mM KF; 0.25 mg/ml bovine serum albumin (BSA); […] thymidine labeled with either ^14 C or ^3 H; the compound being tested as inhibitor; and the viral thymidine kinase. The amount of enzyme, incubation time and temperature are adjusted so that no more than 20% of the substrate is converted to product in a reaction without inhibitor. At the end of the incubation period, 100 microliters of the assay mixture are spotted on a 25 mm disk of DEAE paper. The disks are washed three times with ethanol to remove unreacted thymidine and the amount of thymidine monophosphate produced is determined by scintillation counting of the disks. The results (in IC50) are calculated to give the concentration of inhibitor resulting in 50% inhibition of enzyme. The IC50 of L-58,340 is about 100 nM.

herpes thymidine kinase, sequence (P0DTH5 whole entry): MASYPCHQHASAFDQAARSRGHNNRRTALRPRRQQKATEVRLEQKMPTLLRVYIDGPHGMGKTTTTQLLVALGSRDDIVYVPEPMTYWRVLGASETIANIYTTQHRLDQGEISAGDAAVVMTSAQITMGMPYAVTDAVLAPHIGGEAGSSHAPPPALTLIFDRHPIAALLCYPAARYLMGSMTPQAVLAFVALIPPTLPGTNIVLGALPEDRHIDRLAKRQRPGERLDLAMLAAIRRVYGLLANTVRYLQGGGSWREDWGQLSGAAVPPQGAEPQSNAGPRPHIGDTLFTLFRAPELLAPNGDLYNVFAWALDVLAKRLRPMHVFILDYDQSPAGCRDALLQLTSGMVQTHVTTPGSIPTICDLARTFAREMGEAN

Nc1nc2c(ncn2C[C@H]2CCCC[C@H]2CO)c(=O)[nH]1 [L-758,340, 9-{[1(R)-hydroxymethyl-2(S)-cyclohexyl]methyl}guanine]
IC50 (2 mM labeled thymidine, 5 mM ATP, pH 7.5, read-out: IC50 (concentration of inhibitor resulting in 50% inhibition of enzyme)): ~0.1 µM
activity as an inhibitor of herpes thymidine kinase relative to its enantiomer (compared with its enantiomer): substantially more active
inhibition of herpes thymidine kinase (in words) (first principal finding): potent inhibitor
